The values that follow come from patent US8524866B2, “Antibodies to the alpha-7 nicotinic receptors and methods of treating inflammatory disorders with the same” (The Feinstein Institute for Medical Research, priority 2005, dated 2013).

This experiment has as its target α-bungarotoxin-binding nicotinic receptors on primary human macrophages (Homo sapiens, UniProt P36544).

Chain of α-bungarotoxin-binding nicotinic receptors on primary human macrophages (P36544 23-502): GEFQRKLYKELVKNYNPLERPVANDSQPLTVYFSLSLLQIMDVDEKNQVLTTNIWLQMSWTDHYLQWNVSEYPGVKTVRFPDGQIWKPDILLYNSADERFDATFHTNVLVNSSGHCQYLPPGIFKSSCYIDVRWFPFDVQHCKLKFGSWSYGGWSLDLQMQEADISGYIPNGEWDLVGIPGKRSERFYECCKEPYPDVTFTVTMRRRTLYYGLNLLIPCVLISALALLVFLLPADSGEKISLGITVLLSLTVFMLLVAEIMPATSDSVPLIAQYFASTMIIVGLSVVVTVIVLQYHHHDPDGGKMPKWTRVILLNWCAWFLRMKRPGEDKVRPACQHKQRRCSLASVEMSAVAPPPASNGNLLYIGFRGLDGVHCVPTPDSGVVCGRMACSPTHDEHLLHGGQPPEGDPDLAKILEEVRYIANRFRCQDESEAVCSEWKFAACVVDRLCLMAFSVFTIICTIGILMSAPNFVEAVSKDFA

For `CN1CCCC1c1cccnc1` (centres unmarked) [Nicotine], the “effect on intensity of α-bungarotoxin binding” value is recorded as “markedly reduced”.

Take α-bungarotoxin: the “binding on the macrophage surface” value is “Strong binding”.
